Source: patent publication US20150004697A1, “METHOD FOR PRODUCING MULTIPOLAR CELL” (TOAGOSEI CO., LTD., priority 2011, published 2015)

How the values were obtained:
Format in all cases: cell-based
[1] = tested on: human alveolar basal epithelial adenocarcinoma cells, A549; test: Multipolarity-inducing activity assay 3 (A549 cells synchronized in G2 phase (or M phase)); settings: peptide 10 μM; for Multipolar level (%): 100 M-phase cells; for fluorescence microscope observation of centrosomes and multipolar spindles: DAPI, anti-tubulin and anti-centrin antibody
Protocol: Some of the sample peptides obtained in Example 1 were tested for multipolarity-inducing activity against target cultured tumor cells. Details of the assay are as described below. As the tumor cells tested, cells forming a […] (human alveolar basal epithelial adenocarcinoma cells, A549) were used. The cell line was cultured in the same manner as Example 2 described above. The resulting cultured tumor cells were synchronized in the G2 phase (or M phase) in the same manner as Example 3 described above. Similarly to Examples 2 and 3 described above (although the number of M-phase cells was 100), the presence of multipolarity was observed by immunofluorescence under fluorescence microscope. In addition, using centrin-2 as a marker for centrosomes (centrioles), the cells were tested for the presence of centrin-2 (i.e. the presence of centrosomes) by immunofluorescence with an anti-centrin-2 antibody (primary antibody) to identify the centrin-2 and a fluorescent dye-labeled secondary antibody to identify the primary antibody.

HeLa cell line (HeLa S3) [2] = test: Multipolarity-inducing activity assay 1 (cells synchronized in G1 phase by double thymidine block); settings: peptide 10 μM, 6 hours of incubation; for Number of multipolar cells: HeLa S3 synchronized in G1 phase, count among the M-phase cells observed
Protocol: Some of the sample peptides obtained in Example 1 were tested for multipolarity-inducing activity against target cultured tumor cells. Details of the assay are as described below.
As the tumor cells tested, a HeLa cell line (HeLa S3) was used. The cell line was cultured beforehand in a DMEM medium (i.e. Dulbecco MEM medium (DMEM medium, a Gibco product) containing 10% fetal bovine serum (FBS, a Gibco product), 2 mM of L-glutamine, 50 unit/mL of penicillin, and 50 μg/mL of streptomycin), and seeded at about 3×10^4 cells per well in an 8-well slide glass. Thymidine was added to the culture medium to a final concentration of 2.5 mM. Incubation was carried out at 37° C. under 5% CO2 for 16 hours. The culture medium was exchanged to remove thymidine and incubation was carried out for 8 more hours. Subsequently, thymidine was added again to a final concentration of 2.5 mM and incubation was carried out for 16 hours.
By such double thymidine block, the cells being cultured were synchronized in the G1 phase of the cell cycle. After such synchronization treatment, the culture medium was exchanged to remove thymidine and incubation was carried out for 2 more hours. Subsequently, one of the sample peptides was added to each well. In this example, one of Samples 1, 4, 8, 9, 12 and 14 was added to a peptide concentration in the well of 10 μM.
After a sample peptide was added as described above, the 8-well slid glass was incubated under the aforementioned conditions for 6 hours.
After 6 hours of incubation, the presence of multipolarity was observed by immunofluorescence under fluorescence microscope. In particular, after 6 hours of incubation following the addition of a sample peptide, the cultured cells were subjected to nuclear staining with DAPI (4′,6-diamidino-2-phenylindole), and using α-tubulin as a marker for spindles, the cells were tested for the presence of tubulin (i.e., the presence of spindles) by immunofluorescence with an anti-tubulin antibody (primary antibody) to identify the tubulin and a fluorescent dye (ALEXA FLUOR(registered trademark) 555)-labeled secondary antibody to identify the primary antibody.

HeLa cell line (HeLa S3) [3] = test: Multipolarity-inducing activity assay 2 (cells synchronized in G2 phase (or M phase) by nocodazole); settings: for Multipolar level (%): peptide 10 μM for 4 hours with nocodazole, then 2 hours without, % of M-phase cells; for Multipolar level (%) / Number of multipolar cells: HeLa S3 synchronized in G2 phase (M phase); for Number of multipolar cells / fluorescence microscope observation of centrosomes and multipolar spindles: peptide 10 μM; for Number of multipolar cells: count among 75 M-phase cells; for fluorescence microscope observation of centrosomes and multipolar spindles: HeLa synchronized in G2 phase (or M phase) by nocodazole, DAPI and anti-tubulin antibody
Protocol: The same sample peptides as those used in Example 2 above were used and tested for multipolarity-inducing activity against cultured tumor cells synchronized in the G2 phase (or M phase). Details of the assay are as described below.
As the tumor cells tested, a HeLa cell line (HeLa S3) was used. The cell line was cultured under the same conditions as Example 2 and seeded at about 3×10^4 cells per well in an 8-well slide glass. Thymidine was added to the culture medium to a final concentration of 2.5 mM. Incubation was carried out at 37° C. under 5% CO2 for 18 hours. The culture medium was exchanged to remove thymidine and incubation was carried out for 6 more hours. Subsequently, nocodazole was added to a final concentration of 0.1 μg/mL and incubation was carried out for 16 hours. By such addition of nocodazole, the cells being cultured were synchronized in the G2 phase (M phase) of the cell cycle.
After the 16 hours of incubation, without exchanging the culture medium (i.e. with nocodazole being contained), one of the sample peptides was added to each well to a peptide concentration in the well of 10 μM and incubation was carried out for 4 hours. Subsequently, the culture medium was exchanged and incubation was continued for 2 more hours without nocodazole or the sample peptide.
After the 2 hours of incubation, in the same manner as Example 2, the presence of multipolarity was observed by immunofluorescence under fluorescence microscope.

Sequence | Multipolar level (%) [1] | Number of multipolar cells (HeLa cell line (HeLa S3) [2]) | Multipolar level (%) (HeLa cell line (HeLa S3) [3]) | Number of multipolar cells (HeLa cell line (HeLa S3) [3]) | fluorescence microscope observation of centrosomes and multipolar spindles (HeLa cell line (HeLa S3) [3]) | Multipolar level (%) (HeLa cell line (HeLa S3) [2]; HeLa S3 synchronized in G1 phase (double thymidine block), % multipolar cells relative to M-phase cells) | fluorescence microscope observation of centrosomes and multipolar spindles [1]
CEISAKRTC [Sample 7] | 36% |  |  |  |  |  | 
CGHRPYQYC [Sample 4] | 36% | 6 | 62.7% | 47 |  |  | 
CHILHAQAC [Sample 8] | 36% | 11 | 68.0% | 51 |  |  | 
CLAPSPSKC [Sample 2] | 38% |  |  |  |  |  | 
CLAPSPSKCKKRFLRKNDRKKR (CLAPSPSKCKKRTLRKNDRKKR) [Sample 14] | 38% | 10 | 61.3% | 46 |  |  | 
CLTKSYTSC [Sample 12] |  | 13 | 64.0% | 48 | 3 or more centrosomes formed in many cells |  | 
CPRPPSLEC [Sample 9] |  | 19 | 73.3% | 55 | 3 or more centrosomes formed in many cells and a cell with a particularly high degree of multipolarity |  | 
CSSATGKSC [Sample 1] |  | 7 | 62.7% | 47 |  | 8.3% | 
CSYEKRPMC [Sample 11] |  |  |  |  |  |  | 3 or more (typically 4 or more, e.g. 8 or more) centrosomes formed in many cells
CTGHWASEC [Sample 10] | 31% |  |  |  |  |  | 
CTLNSHSNC [Sample 6] | 30% |  |  |  |  |  | 3 or more (typically 4 or more, e.g. 8 or more) centrosomes formed in many cells
